Measured values from publication PMC4183613 (Journal of the American Chemical Society, 2014).

Assays:
[1] = biological target: T1, PRC2 (Homo sapiens, UniProt Q15910); test: PRC2 inhibition, scintillation methyltransferase assay with H3; assay type: biochemical; conditions: peptide 50 μM; substrate peptide 20 μM; 3H-SAM scintillation assay
[2] = biological target: polycomb repressor complex 2 (PRC2) (human (purified from HeLa cells)) (UniProt Q15910)
[3] = biological target: T1, PRC2; assay type: biochemical; conditions: mononucleosome substrates; Figure 2C
[4] = biological target: polycomb repressor complex 2 (PRC2) (human (purified from HeLa cells)) (UniProt Q15910); remark: listed apart in the source
[5] = biological target: polycomb repressor complex 2 (PRC2) (human (purified from HeLa cells)) (UniProt Q15910); test: methyltransferase inhibition kinetics

T1 sequence (Q15910 whole entry): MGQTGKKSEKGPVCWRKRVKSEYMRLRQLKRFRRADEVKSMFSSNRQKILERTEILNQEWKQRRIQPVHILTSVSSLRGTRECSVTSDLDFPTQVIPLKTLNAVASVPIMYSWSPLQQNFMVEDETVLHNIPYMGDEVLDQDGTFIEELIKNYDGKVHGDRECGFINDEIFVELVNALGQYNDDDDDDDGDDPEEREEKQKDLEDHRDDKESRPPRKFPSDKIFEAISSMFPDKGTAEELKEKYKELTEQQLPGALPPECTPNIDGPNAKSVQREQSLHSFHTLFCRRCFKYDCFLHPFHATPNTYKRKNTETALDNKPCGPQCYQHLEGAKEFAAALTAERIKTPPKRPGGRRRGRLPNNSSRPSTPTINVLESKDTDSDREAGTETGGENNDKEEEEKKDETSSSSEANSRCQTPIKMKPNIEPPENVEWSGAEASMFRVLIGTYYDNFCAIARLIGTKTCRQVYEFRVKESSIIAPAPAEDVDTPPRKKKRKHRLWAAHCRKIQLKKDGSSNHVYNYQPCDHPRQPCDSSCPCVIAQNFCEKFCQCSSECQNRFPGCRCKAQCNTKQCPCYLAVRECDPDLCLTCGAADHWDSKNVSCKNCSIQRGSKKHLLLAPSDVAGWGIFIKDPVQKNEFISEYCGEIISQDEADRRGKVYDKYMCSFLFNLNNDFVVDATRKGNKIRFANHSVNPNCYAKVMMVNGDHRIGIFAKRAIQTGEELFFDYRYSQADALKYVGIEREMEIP
T1 sequence (O75530 whole entry partner): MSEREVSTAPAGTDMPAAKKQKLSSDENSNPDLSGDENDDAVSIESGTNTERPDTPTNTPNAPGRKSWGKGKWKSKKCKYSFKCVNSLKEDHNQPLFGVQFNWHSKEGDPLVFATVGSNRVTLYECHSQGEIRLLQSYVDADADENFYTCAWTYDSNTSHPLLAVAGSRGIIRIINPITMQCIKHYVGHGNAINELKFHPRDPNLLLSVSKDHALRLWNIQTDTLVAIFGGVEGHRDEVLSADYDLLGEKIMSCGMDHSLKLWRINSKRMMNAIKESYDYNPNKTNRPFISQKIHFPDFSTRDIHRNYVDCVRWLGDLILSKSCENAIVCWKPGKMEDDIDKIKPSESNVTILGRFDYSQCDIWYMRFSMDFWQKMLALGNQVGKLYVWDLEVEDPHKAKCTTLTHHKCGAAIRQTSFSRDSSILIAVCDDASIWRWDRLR
T1 sequence (Q15022 whole entry partner): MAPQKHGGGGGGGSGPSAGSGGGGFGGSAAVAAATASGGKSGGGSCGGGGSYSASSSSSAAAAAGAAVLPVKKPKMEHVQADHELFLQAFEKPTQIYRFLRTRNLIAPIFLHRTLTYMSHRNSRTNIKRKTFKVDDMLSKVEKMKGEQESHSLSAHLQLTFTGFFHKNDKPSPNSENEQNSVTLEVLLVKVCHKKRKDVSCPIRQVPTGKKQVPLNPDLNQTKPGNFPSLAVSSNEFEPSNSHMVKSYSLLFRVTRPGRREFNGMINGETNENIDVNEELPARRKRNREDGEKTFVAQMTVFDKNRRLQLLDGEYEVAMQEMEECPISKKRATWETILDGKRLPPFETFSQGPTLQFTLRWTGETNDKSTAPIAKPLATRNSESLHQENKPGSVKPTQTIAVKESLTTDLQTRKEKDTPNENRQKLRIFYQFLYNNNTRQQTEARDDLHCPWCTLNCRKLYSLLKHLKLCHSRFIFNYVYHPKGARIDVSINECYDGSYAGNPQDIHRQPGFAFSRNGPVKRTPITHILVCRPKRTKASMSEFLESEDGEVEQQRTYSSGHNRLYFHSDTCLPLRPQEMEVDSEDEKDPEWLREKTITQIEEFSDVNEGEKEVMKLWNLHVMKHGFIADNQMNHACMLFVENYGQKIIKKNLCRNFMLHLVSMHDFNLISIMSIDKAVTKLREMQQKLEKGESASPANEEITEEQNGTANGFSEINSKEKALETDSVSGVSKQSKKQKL
T1 sequence (Q09028 whole entry partner): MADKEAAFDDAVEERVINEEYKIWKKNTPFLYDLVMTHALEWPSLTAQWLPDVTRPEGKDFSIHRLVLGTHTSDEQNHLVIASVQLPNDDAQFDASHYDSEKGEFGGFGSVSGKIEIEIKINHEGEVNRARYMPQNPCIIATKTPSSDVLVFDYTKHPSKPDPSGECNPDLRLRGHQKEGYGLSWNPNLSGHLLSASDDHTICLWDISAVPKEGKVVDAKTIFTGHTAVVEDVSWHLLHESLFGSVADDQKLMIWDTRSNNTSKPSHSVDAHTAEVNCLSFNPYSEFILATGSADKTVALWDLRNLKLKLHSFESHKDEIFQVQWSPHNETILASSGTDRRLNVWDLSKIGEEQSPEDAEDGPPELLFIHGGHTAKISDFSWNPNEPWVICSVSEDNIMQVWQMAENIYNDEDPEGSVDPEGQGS

Row | Substance | inhibition of PRC2 methyltransferase activity, in words [1] | further results
1 | KAARXSAPSTGG [compound 17] | abolished inhibition | –
2 | KAARXSAPSTGG [compound 3] | complete inhibition | –
3 | H3.3(23-34) peptide 18 (trifluoro-methionine at residue 27) | – | IC50 of inhibition of PRC2 methyltransferase activity (Figure S2A) [2]: 11 µM
4 | KAARXSAPSTGG [compound 5] | modest loss in activity | –
5 | H3 1-10-GGG-H3 21-37 [compound 39] | – | inhibition by bitopic constructs, in words [3]: outperformed longer linkers
6 | KAARXSAPSTGG [compound 7] | did not provide measurable inhibition | –
7 | KAARXSAPSTGG [compound 8] | did not provide measurable inhibition | –
8 | KAARXSAPSTGG [compound 4] | did not provide measurable inhibition | –
9 | KAARXSAPSTGG [compound 16] | modest loss of inhibition | –
10 | H3K27M mutant mononucleosome (from UniProt P84243 1-136) (complex) | – | IC50 of inhibition of PRC2 methylation of mononucleosome substrates [4]: 2.6 nM; Ki [5]: 2.1 nM
